# In publication PMC5877539, “Biochemical and MALDI-TOF Mass Spectrometric Characterization of a Novel Native and Recombinant Cystine Knot Miniprotein from Solanum tuberosum subsp. andigenum cv. Churqueña” (International Journal of Molecular Sciences, 2018):
# Non-standard residues stand in square brackets, D forms with d. No end group written: not given here. pGlu = O=C1CC[C@@H](C(=O)O)N1
# T1: Carboxypeptidase A from bovine pancreas (bovine, UniProt P00730 111-419)
# T1 construct: carboxypeptidase A from bovine pancreas; Free in solution for the Ki determinations; also called bCPA; bovine CPA; source: bought: Sigma-Aldrich (from bovine pancreas)
# T1 sequence (looked up): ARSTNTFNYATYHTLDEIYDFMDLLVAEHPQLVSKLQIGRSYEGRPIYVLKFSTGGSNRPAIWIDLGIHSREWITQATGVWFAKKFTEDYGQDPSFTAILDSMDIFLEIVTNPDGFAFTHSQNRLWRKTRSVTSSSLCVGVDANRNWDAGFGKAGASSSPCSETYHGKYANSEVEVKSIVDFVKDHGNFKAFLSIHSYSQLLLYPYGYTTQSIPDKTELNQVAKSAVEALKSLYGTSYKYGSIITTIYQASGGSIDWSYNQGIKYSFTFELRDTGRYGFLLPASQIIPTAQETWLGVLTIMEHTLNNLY
# T2: Carboxypeptidase B from porcine pancreas (porcine, UniProt P09955 111-416)
# T2 construct: carboxypeptidase B from porcine pancreas; also called pCPB; porcine CPB; source: bought: Sigma-Aldrich (from porcine pancreas)
# T2 sequence (looked up): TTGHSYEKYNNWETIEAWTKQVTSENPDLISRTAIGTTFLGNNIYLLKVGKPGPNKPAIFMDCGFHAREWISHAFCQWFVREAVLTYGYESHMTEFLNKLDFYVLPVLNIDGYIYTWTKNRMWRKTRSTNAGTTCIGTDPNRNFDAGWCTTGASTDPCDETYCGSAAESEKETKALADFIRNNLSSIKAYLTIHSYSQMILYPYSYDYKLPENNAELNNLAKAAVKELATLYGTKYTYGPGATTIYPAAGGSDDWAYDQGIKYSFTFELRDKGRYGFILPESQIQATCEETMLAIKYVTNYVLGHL
# B1: recombinant chuPCI (cystine-knot metallocarboxypeptidase inhibitor from Solanum tuberosum subsp. andigenum cv. Churqueña) (natural protein)
# chain: QRDPDPICNKPCKTHDDCSGAWFCQACWNSARTCGPYVG
# modifications: also: N-terminal Gln partly cyclised to pyroglutamate
# notes: mature chuPCI (39 amino acids) of the chuPCI precursor, S. tuberosum subsp. andigenum cv; Churqueña; Cloned in pIN-III-OmpA3 with the OmpA3 signal peptide at the N-terminus for secretion; The mass of the purified protein (4326.3 Da) fits the 39 residues without the signal peptide; Three disulfide bonds (Cys8-Cys24, Cys12-Cys27, Cys18-Cys34); also called rchuPCI; recombinant churqueña PCI; source: …
# How the values were obtained:
# bovine CPA [1] = experiment: Affinity chromatography on CPA-glyoxyl-agarose (binding to immobilized CPA), MALDI-TOF read-out; conditions: heat-treated extract (100 °C, 60 min); 0.1 M Tris-HCl pH 7.2, 0.2 M NaCl
# Description: (§1) A 50 mL aliquot of the clarified crude extract (with a protein concentration of (200 μg·mL^−1) was loaded onto a 2.0 mL bovine CPA-glyoxyl-agarose column prepared in house. The affinity resin was prepared in house as described. Before the addition of the crude extract, the affinity resin was previously equilibrated with 10 column volumes (cv) 0.1 M Tris-HCl buffer (pH 7.2) containing 0.2 M NaCl. Then, the column was washed with 5 cv of equilibration buffer. The retained proteins were eluted with two different buffers: (1) HCl solution with pH = 5.0 (2 cv) and (2) […] solution with pH = 3.0 (2 cv). The eluted fractions were adjusted immediately to pH 7.0 by adding NaOH. All the fractions that presented CPA inhibitory activity were pooled and stored at −80 °C until analysis.
# (§2) For MALDI-TOF mass spectrometric analysis, samples from the different purification steps, as well as from the clarified crude extract were mixed with an equal volume of α-cyano-4-hydroxycinnamic acid (hcca) matrix solution. Previously, the samples were desalted by dialysis in 0.022 μm filters. The matrix-sample mixture was spotted onto MT 384 target plate polished steel T F from Bruker Daltonics, and the spots were evaporated to dryness at room temperature. […] The resultant tryptic peptides were dissolved in 10 μL of 0.1% CF3CO2H (v/v) an analyzed by MALDI-TOF in the presence of hcca matrix. […]
# immobilized CPA [2] = experiment: C-terminal cleavage by immobilized CPA; design: species or system bovine; conditions: affinity chromatography eluate, MALDI-TOF
# Description: as §1, §2
# immobilized CPA [3] = conditions: after binding of the inhibitor to immobilized CPA; cited from earlier work
# Description: For further characterization, the initial heat-treated crude extract, the flow-through (fraction containing the non-retained peptides and proteins), and the elution from the affinity chromatography containing the final purified protein were subjected to MALDI-TOF mass spectrometry. A detailed analysis of the peaks present in the mass spectra for the initial heat-treat ...
# [4] = tested on: metallocarboxypeptidases (MCPs); conditions: cited from earlier work
# Description: (§3) A number of CKMPs function as potent protease peptide inhibitors (PPIs). Among them, the potato carboxypeptidase inhibitor (PCI) was the first CKMPs to be discovered. […] The first crystal structure of this 39 amino acid plant protease inhibitor was reported in 1980 by Rees and Liscomb. After almost 40 years of intense research in the field of proteases, only a small number of metallocarboxypept ...
# [5] = ref 34 (Wang and co-workers, 2006); cited from earlier work
# Description: as §3
# [6] = tested on: pancreatic carboxypeptidases A and B (CPA and CPB, respectively); conditions: in vitro, by pancreatic carboxypeptidases A and B; cited from earlier work
# Description: as §3
# adenocarcinoma cell = conditions: in vitro, acting as epidermal growth factor (EGF) antagonist; cited from earlier work
# Description: as §3
# [7] = target: porcine carboxypeptidases B (pCPB); experiment: Inhibition kinetic constant (Ki), pCPB, pre-steady-state tight-binding (Morrison) assay; type: biochemical; conditions: against pCPB
# Description: (§4) The inhibitory properties of the purified rchuPCI against bCPA and pCPB were determined and compared with a recombinant version of the canonical PCI. The Ki values were evaluated following a pre-steady-state based protocol, according to the Morrison model for tight-binding inhibitors. […] When compared to the canonical PCI, the Ki values obtained for rchuPCI against bCPA and pCPB were about 2-fold higher than the Ki values obtained for recombinant PCI (rPCI).
# (§5) The method for tight binding inhibitors was used for the Ki determination. Inhibitory assays were performed at 25 °C under equilibrium conditions ([E0]/Ki ≤ 10) with a fixed concentration of bCPA or pCPB and substrate (0.1 mM N-(4-methoxyphenylazoformyl)-Phe-OH or 0.1 mM N-(4-methoxyphenylazoformyl)-Arg-OH, respectively) in Tris-HCl buffer (pH 7.5) containing 0.2 M NaCl. Samples were pre-incubated for 15 min at RT before the addition of substrate. Then, the decrease in absorbance was measured at 340 nm in a Victor3 (Perkin Elmer, Boston, MA, USA) plate reader. Ki values were calculated by direct fitting of the fractional activities (vi/v0) to the Morrison equation and assuming a competitive inhibition modality (Equations (3) and (4)). (3) vi/v0=1−([E]T+[I]T+Kiapp)−([E]T+[I]T+Kiapp)^2−4[E]T[I]T/2[E]T (4) Ki=Kiapp/([S0/KM])+1 […]
# [8] = target: bovine carboxypeptidases A (bCPA); experiment: Inhibition kinetic constant (Ki), bCPA, pre-steady-state tight-binding (Morrison) assay; type: biochemical; conditions: against bCPA
# Description: as §4, §5
# bovine CPA [9] = experiment: CPA inhibitory activity after heat treatment (thermal stability); type: physicochemical; conditions: crude extract, 100 °C for 60 min; Bradford and CPA inhibition
# Description: The bCPA inhibitory activity of the crude extract and the heat-treated samples was determined similarly as described above for the determination of the IC50 values. However, in this case a unique concentration of the sample was tested. bCPA inhibitory activity (%) was calculated by using the following equation:(2) Y=(ΔAbs340nm/Δt(min))potato extract/(ΔAbs340nm/Δt(min))control×100
# (§6) Aliquots with 1.0 mL of the clarified crude extract (see Section 3.2) where incubated at 60, 70, 85 or 100 °C for 60 min. After incubation the samples were centrifuged at 14,500× g for 90 min at 4 °C to eliminate all thermally denatured proteins. Afterwards, the total protein content and the inhibitory activity of the non-treated crude extract and heat-treated samples were determined.
# [10] = MALDI-TOF MS of heat-treated samples (thermal stability); type: physicochemical; conditions: crude extract heat-treated 60 min; MALDI-TOF linear positive mode
# Description: as §6
# For MALDI-TOF mass spectrometric analysis, samples from the different purification steps, as well as from the clarified crude extract were mixed with an equal volume of α-cyano-4-hydroxycinnamic acid (hcca) matrix solution. Previously, the samples were desalted by dialysis in 0.022 μm filters. The matrix-sample mixture was spotted onto MT 384 target plate polished steel T F from Bruker Daltonics, and the spots were evaporated to dryness at room temperature. Mass spectra were acquired on a Bruker Daltonics Ultraflextreme MALDI-TOF mass spectrometer (Bruker Daltonics, Billerica, MA, USA) operating in a linear positive mode. PMF analysis was performed for the identification of nchuPCI. In brief, an in situ tryptic digestion of the tris-tricine-SDS-PAGE electrophoresis bands as performed by following a well described protocol. The resultant tryptic peptides were dissolved in 10 μL of 0.1% CF3CO2H (v/v) an analyzed by MALDI-TOF in the presence of hcca matrix. […]
# [11] = cited from earlier work
# Description: To date, a large number of CKMPs have been identified and isolated from natural sources (i.e., from arthropods, vertebrates, mollusks, fungi, plants, and so on). These molecules belong to more than 34 protein families and are involved in diverse biological functions. In animals, CKMPs are secreted peptides that function as extracellular signaling molecules involved in the regulation of important cellular functions such as cell growth or cell development. In plants, CKMPs are often involved in defense against external pathogens. Typically, the latter group functions as prote ...
# calcium channel = conditions: cited from earlier work
# [12] = target: T1, Carboxypeptidase A from bovine pancreas; experiment: enzyme inhibition kinetics (Morrison equation for tight-binding inhibitors); 25 °C, equilibrium conditions ([E0]/Ki <= 10), fixed bCPA or pCPB, 0.1 mM N-(4-methoxyphenylazoformyl)-Phe-OH (bCPA) or -Arg-OH (pCPB), Tris-HCl pH 7.5, 0.2 M NaCl; pre-incubated 15 min at RT; absorbance at 340 nm; competitive inhibition assumed; conditions: both partners purified
# [13] = target: T2, Carboxypeptidase B from porcine pancreas; experiment: as above; conditions: both partners purified
# [14] = compared to recombinant PCI (rPCI)
molecule,measurement,setting,value
"-RDPDPICNKPCKTHDDCSGAWFCQACWNSARTCGPYVG (disulfide) [IIa, chuPCI lacking the N-terminal amino acid]",Retention by immobilized CPA (MALDI-TOF of flow-through vs initial extract),bovine CPA [1],clear fading of the molecular ion intensities
same,C-terminal cleavage by immobilized CPA (mass shift),immobilized CPA [2],loss of 57 Da
"PCI: potato carboxypeptidase inhibitor, 39 amino acid plant protease inhibitor from Solanum tuberosum (QQHADPICNKPCKTHDDCSGAWFCQACWNSARTCGPYVG)",C-terminal cleavage by immobilized CPA,immobilized CPA [3],a C-terminal glycine residue is usually cleaved by the immobilized CPA
same,Inhibition of metallocarboxypeptidases,[4],inhibits different enzymes within the family of metallocarboxypeptidases
same,Antithrombotic action,[5],can act as an antithrombotic drug
same,Blocking of C-terminal cleavage (and consequent inactivation) of human EGF,[6],blocks the C-terminal cleavage
same,Inhibition of adenocarcinoma cell growth,adenocarcinoma cell,inhibit in vitro adenocarcinoma cell growth
"QRDPDPICNKPCKTHDDCSGAWFCQACWNSARTCGPYVG (disulfide (positions not given here)) [rchuPCI, recombinant product of mature chuPCI (39 amino acids) expressed in E. coli BL21 (DE3)]",All Ki values determined (range in words),[7],nanomolar range
same,Ki values obtained for rchuPCI compared with rPCI (fold higher),[7]; [14],about 2 fold
same,All Ki values determined (range in words),[8],nanomolar range
same,Ki values obtained for rchuPCI compared with rPCI (fold higher),[8]; [14],about 2 fold
"[pGlu]RDPDPICNKPCKTHDDCSGAWFCQACWNSARTCGPYVG (disulfide (positions not given here)) [IIIa, full-length chuPCI post-translationally modified with an N-terminal pyroglutamic acid]",Retention by immobilized CPA (MALDI-TOF of flow-through vs initial extract),bovine CPA [1],clear fading of the molecular ion intensities
same,C-terminal cleavage by immobilized CPA (mass shift),immobilized CPA [2],loss of 57 Da
"[pGlu]RDPDPICNKPCKTHDDCSGAWFCQACWNSARTCGPYVG (disulfide (positions not given here)) [native chuPCI, Churqueña]",Temperature stability of CPA inhibitory activity,bovine CPA [9],"high temperature stability, even after thermal treatment at 100 °C for 60 min"
same,Heat resistance of the 4309 Da peak/miniprotein,[10],heat-resistant molecule
"kalata B1: CKMP isolated from plants (GLPVCGETCVGGTCNTPGCTCSWPVCTRN; ends and bridges not checked; also: cystine-knot disulfides, pairing not given here; UniProt P56254 89-117, looked up)",Antibacterial and/or antifungal activities,[11],antibacterial and/or antifungal activities
ω-conotoxin MVIIa,Calcium channel block,calcium channel,calcium channel blocker
"QQHADPICNKPCKTHDDCSGAWFCQACWNSARTCGPYVG (natural protein, Solanum tuberosum subsp. tuberosum, UniProt P01075 1-39, looked up, also called canonical PCI) [recombinant canonical potato carboxypeptidase inhibitor (PCI)]",Ki,[12],4.3 ± 0.46 nM
same,Ki,[13],10.7 ± 1.17 nM
B1,Ki,[12],10.8 ± 1.55 nM
same,Ki,[13],19.8 ± 1.82 nM
